# Assay results from article PMC10046369, “Low-Affinity/High-Selectivity Dopamine Transport Inhibition Sufficient to Rescue Cognitive Functions in the Aging Rat” (Biomolecules, 2023).
# What was measured:
# Experiment in all cases: cell-based
# Parameters in all cases: functional GPCR antagonist screen (Eurofins Cerep), percent inhibition of control agonist response
# Details in all cases: antagonist effect, against control agonist; read-out: % Inhibition of Control Agonist Response, Mean
# [1] = molecular target: T1, PAF (h) (Homo sapiens, UniProt P25105)
# T1 construct: gene PTAFR
# [2] = molecular target: T2, MC3 (h) (Homo sapiens, UniProt P41968)
# T2 construct: gene MC3R
# [3] = molecular target: T3, M2 (h) (Homo sapiens, UniProt P08172)
# T3 construct: gene CHRM2
# T3 sequence (P08172 whole entry): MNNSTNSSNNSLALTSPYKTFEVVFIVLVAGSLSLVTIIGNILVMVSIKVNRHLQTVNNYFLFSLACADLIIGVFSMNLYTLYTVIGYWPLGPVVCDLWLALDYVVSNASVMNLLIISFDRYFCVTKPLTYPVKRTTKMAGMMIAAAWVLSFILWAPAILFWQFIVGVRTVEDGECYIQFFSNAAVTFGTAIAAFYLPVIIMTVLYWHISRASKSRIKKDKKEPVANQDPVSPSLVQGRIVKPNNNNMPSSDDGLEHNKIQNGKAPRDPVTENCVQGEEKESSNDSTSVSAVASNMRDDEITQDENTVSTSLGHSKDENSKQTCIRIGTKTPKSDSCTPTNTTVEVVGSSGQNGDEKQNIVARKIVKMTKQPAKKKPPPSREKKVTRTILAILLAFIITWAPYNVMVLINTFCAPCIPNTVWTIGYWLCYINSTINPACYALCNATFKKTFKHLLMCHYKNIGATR
# [4] = molecular target: T4, LPA3 (h) (Homo sapiens, UniProt Q9UBY5)
# T4 construct: gene LPAR3
# T4 sequence (Q9UBY5 whole entry): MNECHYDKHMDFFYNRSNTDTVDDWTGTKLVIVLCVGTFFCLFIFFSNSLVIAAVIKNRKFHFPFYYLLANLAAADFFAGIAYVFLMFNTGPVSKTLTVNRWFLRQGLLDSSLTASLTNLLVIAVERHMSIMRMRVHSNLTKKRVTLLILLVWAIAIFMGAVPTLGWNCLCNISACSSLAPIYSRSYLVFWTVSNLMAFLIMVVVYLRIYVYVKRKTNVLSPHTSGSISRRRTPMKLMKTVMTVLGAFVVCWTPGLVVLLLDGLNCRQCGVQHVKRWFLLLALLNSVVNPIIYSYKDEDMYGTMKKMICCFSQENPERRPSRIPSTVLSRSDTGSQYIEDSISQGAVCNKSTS
# [5] = molecular target: T5, S1P4 (h) (Homo sapiens, UniProt O95977)
# T5 construct: gene S1PR4
# T5 sequence (O95977 whole entry): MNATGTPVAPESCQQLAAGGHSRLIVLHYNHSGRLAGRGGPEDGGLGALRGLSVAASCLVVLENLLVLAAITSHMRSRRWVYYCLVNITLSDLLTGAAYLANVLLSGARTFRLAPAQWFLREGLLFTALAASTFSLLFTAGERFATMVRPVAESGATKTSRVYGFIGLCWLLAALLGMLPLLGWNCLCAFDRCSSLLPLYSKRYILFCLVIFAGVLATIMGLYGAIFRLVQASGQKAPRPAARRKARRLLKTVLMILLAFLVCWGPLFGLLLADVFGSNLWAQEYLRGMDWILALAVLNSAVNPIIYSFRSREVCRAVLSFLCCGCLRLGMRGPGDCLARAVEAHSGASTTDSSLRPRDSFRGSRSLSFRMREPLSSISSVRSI
# [6] = molecular target: T6, μ (MOP) (h) (Homo sapiens, UniProt P35372)
# T6 construct: gene OPRM1
# T6 sequence (P35372 whole entry): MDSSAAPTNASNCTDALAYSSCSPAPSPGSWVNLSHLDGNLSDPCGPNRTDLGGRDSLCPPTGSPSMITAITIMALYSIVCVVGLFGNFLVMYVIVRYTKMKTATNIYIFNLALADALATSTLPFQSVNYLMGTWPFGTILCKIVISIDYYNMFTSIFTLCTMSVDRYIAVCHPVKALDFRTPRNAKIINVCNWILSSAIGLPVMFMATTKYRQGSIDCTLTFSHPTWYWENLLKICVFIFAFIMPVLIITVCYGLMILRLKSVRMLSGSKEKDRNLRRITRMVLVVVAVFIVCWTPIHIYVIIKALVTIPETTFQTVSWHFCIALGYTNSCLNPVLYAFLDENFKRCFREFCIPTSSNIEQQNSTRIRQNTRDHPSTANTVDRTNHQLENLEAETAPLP
# [7] = molecular target: T7, MrgD (h) (Homo sapiens, UniProt Q8TDS7)
# T7 construct: gene MRGPRD
# [8] = molecular target: T8, EP3 (h) (Homo sapiens, UniProt P43115)
# T8 construct: gene PTGER3
# [9] = molecular target: T9, MT1 (ML1A) (h) (Homo sapiens, UniProt P48039)
# T9 construct: gene MTNR1A
# [10] = molecular target: T10, NK3 (h) (Homo sapiens, UniProt P29371)
# T10 construct: gene TACR3
# T10 sequence (P29371 whole entry): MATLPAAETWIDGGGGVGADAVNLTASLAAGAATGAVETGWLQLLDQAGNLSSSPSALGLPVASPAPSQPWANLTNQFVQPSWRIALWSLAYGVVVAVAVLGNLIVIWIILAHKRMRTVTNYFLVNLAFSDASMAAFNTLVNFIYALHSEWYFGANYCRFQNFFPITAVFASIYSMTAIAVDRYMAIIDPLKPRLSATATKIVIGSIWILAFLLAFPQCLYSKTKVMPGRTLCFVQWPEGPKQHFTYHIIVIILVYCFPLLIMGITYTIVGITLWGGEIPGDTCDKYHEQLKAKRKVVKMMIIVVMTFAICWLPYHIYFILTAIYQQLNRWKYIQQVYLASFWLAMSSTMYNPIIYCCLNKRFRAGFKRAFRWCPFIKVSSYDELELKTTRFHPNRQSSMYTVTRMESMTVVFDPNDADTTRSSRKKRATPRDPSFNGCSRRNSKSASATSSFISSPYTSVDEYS
# [11] = molecular target: T11, DP1 (h) (Homo sapiens, UniProt Q13258)
# T11 construct: gene PTGDR
# [12] = molecular target: T12, TP (TXA2/PGH2) (h) (Homo sapiens, UniProt P21731)
# T12 construct: gene TBXA2R
# T12 sequence (P21731 whole entry): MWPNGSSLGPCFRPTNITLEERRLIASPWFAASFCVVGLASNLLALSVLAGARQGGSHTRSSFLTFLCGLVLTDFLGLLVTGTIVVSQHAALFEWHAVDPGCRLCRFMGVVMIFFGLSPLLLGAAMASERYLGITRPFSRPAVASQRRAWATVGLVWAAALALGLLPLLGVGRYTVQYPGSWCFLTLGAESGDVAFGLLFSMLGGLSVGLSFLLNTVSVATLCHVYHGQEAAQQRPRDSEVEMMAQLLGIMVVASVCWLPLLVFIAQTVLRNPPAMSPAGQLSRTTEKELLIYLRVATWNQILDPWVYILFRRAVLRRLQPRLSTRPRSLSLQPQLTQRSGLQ
# [13] = molecular target: T13, OX1 (h) (Homo sapiens, UniProt O43613)
# T13 construct: gene HCRTR1
# T13 sequence (O43613 whole entry): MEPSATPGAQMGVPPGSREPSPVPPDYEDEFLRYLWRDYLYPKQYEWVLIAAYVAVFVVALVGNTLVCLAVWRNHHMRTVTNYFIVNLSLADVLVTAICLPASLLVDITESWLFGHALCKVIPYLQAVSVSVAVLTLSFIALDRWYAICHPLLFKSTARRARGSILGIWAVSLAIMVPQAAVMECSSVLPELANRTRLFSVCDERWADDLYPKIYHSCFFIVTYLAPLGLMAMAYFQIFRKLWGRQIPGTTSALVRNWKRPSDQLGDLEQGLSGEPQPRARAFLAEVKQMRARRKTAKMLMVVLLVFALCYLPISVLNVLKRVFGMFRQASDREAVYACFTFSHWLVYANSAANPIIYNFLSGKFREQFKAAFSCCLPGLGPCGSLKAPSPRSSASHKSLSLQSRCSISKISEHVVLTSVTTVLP
# [14] = molecular target: T14, NK2 (h) (Homo sapiens, UniProt P21452)
# T14 construct: gene TACR2
# [15] = molecular target: T15, MC2 (h) (Homo sapiens, UniProt Q01718)
# T15 construct: gene MC2R
# T15 sequence (Q01718 whole entry): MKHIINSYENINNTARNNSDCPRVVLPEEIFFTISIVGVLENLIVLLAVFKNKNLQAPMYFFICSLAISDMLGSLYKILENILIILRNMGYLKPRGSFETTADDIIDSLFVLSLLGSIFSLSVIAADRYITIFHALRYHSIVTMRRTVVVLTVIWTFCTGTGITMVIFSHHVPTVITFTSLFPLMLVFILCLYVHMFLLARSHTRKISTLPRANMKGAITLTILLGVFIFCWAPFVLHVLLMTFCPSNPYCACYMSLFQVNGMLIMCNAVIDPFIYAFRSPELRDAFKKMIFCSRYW
# [16] = molecular target: T16, PTH1 (h) (Homo sapiens, UniProt Q03431)
# T16 construct: gene PTH1R
# T16 sequence (Q03431 whole entry): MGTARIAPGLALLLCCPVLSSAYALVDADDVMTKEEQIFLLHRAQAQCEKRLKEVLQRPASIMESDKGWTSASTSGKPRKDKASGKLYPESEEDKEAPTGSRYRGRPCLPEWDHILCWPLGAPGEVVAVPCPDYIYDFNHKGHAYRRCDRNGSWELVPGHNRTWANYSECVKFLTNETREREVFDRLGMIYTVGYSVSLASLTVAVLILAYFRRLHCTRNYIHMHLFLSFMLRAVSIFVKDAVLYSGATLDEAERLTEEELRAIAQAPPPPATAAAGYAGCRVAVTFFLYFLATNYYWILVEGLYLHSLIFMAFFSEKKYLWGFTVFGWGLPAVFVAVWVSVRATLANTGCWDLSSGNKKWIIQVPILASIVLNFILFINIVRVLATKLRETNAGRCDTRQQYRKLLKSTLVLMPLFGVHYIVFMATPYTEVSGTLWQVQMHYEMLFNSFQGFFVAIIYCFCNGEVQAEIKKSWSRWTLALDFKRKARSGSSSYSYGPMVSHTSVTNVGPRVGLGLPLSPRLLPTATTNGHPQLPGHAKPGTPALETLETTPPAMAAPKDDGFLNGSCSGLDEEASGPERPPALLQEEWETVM
# [17] = molecular target: T17, NMU2 (h) (Homo sapiens, UniProt Q9GZQ4)
# T17 construct: gene NMUR2
# T17 sequence (Q9GZQ4 whole entry): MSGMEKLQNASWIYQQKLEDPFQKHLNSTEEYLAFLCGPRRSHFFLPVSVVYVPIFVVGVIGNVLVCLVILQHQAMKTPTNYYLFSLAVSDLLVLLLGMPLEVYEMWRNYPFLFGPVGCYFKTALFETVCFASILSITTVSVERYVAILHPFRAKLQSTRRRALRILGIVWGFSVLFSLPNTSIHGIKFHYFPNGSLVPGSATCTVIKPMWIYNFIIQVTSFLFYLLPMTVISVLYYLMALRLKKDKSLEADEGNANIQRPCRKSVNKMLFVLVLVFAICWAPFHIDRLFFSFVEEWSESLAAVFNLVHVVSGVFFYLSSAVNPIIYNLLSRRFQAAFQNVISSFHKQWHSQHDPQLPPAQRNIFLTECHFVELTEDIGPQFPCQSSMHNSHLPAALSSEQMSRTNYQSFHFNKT
# [18] = molecular target: T18, EP1 (h) (Homo sapiens, UniProt P34995)
# T18 construct: gene PTGER1
# T18 sequence (P34995 whole entry): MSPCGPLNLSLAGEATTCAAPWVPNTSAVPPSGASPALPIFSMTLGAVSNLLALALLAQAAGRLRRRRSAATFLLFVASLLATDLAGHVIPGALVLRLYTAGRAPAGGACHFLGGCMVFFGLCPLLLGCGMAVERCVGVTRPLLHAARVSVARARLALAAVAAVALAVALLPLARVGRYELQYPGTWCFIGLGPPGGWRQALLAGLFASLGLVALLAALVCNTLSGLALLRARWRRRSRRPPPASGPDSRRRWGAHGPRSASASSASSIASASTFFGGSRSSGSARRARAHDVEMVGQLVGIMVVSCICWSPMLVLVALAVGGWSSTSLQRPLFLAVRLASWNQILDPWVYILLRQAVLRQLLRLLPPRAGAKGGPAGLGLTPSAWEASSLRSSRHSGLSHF
# [19] = molecular target: T19, S1P2 (h) (Homo sapiens, UniProt O95136)
# T19 construct: gene S1PR2
# [20] = molecular target: T20, LPA1(h) (Homo sapiens, UniProt Q92633)
# T20 construct: gene LPAR1
# [21] = molecular target: T21, PAR2 (h) (Homo sapiens, UniProt P55085)
# T21 construct: gene F2RL1
# [22] = molecular target: T22, S1P1 (h) (Homo sapiens, UniProt P21453)
# T22 construct: gene S1PR1
# T22 sequence (P21453 whole entry): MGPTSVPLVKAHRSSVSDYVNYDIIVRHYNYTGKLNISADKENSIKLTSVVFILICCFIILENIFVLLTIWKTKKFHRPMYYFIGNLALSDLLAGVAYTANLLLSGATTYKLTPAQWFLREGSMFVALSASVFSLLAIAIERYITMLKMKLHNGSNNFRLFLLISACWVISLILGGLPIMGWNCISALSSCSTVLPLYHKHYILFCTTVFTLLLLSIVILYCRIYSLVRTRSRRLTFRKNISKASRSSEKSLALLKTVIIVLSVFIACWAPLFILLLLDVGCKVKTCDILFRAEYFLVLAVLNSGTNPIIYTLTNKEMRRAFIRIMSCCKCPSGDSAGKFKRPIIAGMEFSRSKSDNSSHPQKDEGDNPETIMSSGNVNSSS
# [23] = molecular target: T23, S1P3 (h) (Homo sapiens, UniProt Q99500)
# T23 construct: gene S1PR3
# [24] = molecular target: T24, PK2 (h) (Homo sapiens, UniProt Q8NFJ6)
# T24 construct: gene PROKR2
smiles,measurement,setting,value
"[O-][S@@+](Cc1cncs1)C(c1ccccc1)c1ccccc1 [S-CE-123, (S)-5-((Benzhydrylsulfinyl)Methyl)Thiazole]",inhibition at 2.8 µM,[1],-39.1%
same,inhibition at 2.8 µM,[2],-7.8%
same,inhibition at 2.8 µM,[3],-9.2%
same,inhibition at 2.8 µM,[4],-34.4%
same,inhibition at 2.8 µM,[5],-14.6%
same,inhibition at 2.8 µM,[6],5%
same,inhibition at 2.8 µM,[7],30%
same,inhibition at 2.8 µM,[8],-30.8%
same,inhibition at 2.8 µM,[9],7.6%
same,inhibition at 2.8 µM,[10],-5.1%
same,inhibition at 2.8 µM,[11],-2.5%
same,inhibition at 2.8 µM,[12],2.5%
same,inhibition at 2.8 µM,[13],-14.5%
same,inhibition at 2.8 µM,[14],-0.8%
same,inhibition at 2.8 µM,[15],3.1%
same,inhibition at 2.8 µM,[16],-10.6%
same,inhibition at 2.8 µM,[17],-17.7%
same,inhibition at 2.8 µM,[18],-11.9%
same,inhibition at 2.8 µM,[19],-5.2%
same,inhibition at 2.8 µM,[20],4.4%
same,inhibition at 2.8 µM,[21],-19.4%
same,inhibition at 2.8 µM,[22],5.9%
same,inhibition at 2.8 µM,[23],12.2%
same,inhibition at 2.8 µM,[24],7.3%
